# According to PubChem BioAssay AID1963964 (Molecular Pharmacology Branch, DTP, NCI, 2024):
# Tested on: 997726-040-R-J2-PDC tumor spheroids, viability
# Experiment: Anticancer human tumor 997726-040-R-J2-PDC patient-derived squamous cell lung carcinoma cell line growth inhibition [PI3K]
# Settings: spheroids with HUVEC and MSC; for IC50: curve of first compound; for viability, T/C: stronger effect = lower value
# Outline: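 Tumor cells were combined with HUVEC and MSCs into spheroids, then dosed with PI3K-inhibitor combinations over half-log ranges capped near clinical Cmax or 10 microM.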
# [1] = second compound 0.0316 µM, first compound 0.0316 µM
# [2] = second compound 0.0316 µM, first compound 0.1 µM
# [3] = second compound 0.0316 µM, first compound 0.316 µM
# [4] = second compound 0.0316 µM, first compound 1 µM
# [5] = second compound 0.0316 µM, first compound 3.16 µM
# [6] = second compound 0.0316 µM, first compound 10 µM
# [7] = second compound 0.1 µM, first compound 0.0316 µM
# [8] = second compound 0.1 µM, first compound 0.1 µM
# [9] = second compound 0.1 µM, first compound 0.316 µM
# [10] = second compound 0.1 µM, first compound 1 µM
# [11] = second compound 0.1 µM, first compound 3.16 µM
# [12] = second compound 0.1 µM, first compound 10 µM
# [13] = second compound 0.316 µM, first compound 0.0316 µM
# [14] = second compound 0.316 µM, first compound 0.1 µM
# [15] = second compound 0.316 µM, first compound 0.316 µM
# [16] = second compound 0.316 µM, first compound 1 µM
# [17] = second compound 0.316 µM, first compound 3.16 µM
# [18] = second compound 0.316 µM, first compound 10 µM
# [19] = second compound 1 µM, first compound 0.0316 µM
# [20] = second compound 1 µM, first compound 0.1 µM
# [21] = second compound 1 µM, first compound 0.316 µM
# [22] = second compound 1 µM, first compound 1 µM
# [23] = second compound 1 µM, first compound 3.16 µM
# [24] = second compound 1 µM, first compound 10 µM
# [25] = second compound 3.16 µM, first compound 0.0316 µM
# [26] = second compound 3.16 µM, first compound 0.1 µM
# [27] = second compound 3.16 µM, first compound 0.316 µM
# [28] = second compound 3.16 µM, first compound 1 µM
# [29] = second compound 3.16 µM, first compound 3.16 µM
# [30] = second compound 3.16 µM, first compound 10 µM
# [31] = second compound 10 µM, first compound 0.0316 µM
# [32] = second compound 10 µM, first compound 0.1 µM
# [33] = second compound 10 µM, first compound 0.316 µM
# [34] = second compound 10 µM, first compound 1 µM
# [35] = second compound 10 µM, first compound 3.16 µM
# [36] = second compound 10 µM, first compound 10 µM
# 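Also: spheroids exposed to compounds for seven days before readout.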
smiles,measurement,setting,value
CC1(C)CCC(CN2CCN(c3ccc(C(=O)NS(=O)(=O)c4ccc(NCC5CCOCC5)c([N+](=O)[O-])c4)c(Oc4cnc5[nH]ccc5c4)c3)CC2)=C(c2ccc(Cl)cc2)C1 + CC(Nc1ncnc2nc[nH]c12)c1cc2cccc(Cl)c2c(=O)n1-c1ccccc1,IC50,second compound 0.0316 µM,> 10 µM
same,IC50,second compound 0.1 µM,9.87 µM
same,IC50,second compound 0.316 µM,9.36 µM
same,IC50,second compound 1 µM,> 10 µM
same,IC50,second compound 3.16 µM,6.26 µM
same,IC50,second compound 10 µM,3.37 µM
same,"viability, T/C",[1],101%
same,"viability, T/C",[2],87.9%
same,"viability, T/C",[3],93.4%
same,"viability, T/C",[4],102%
same,"viability, T/C",[5],104%
same,"viability, T/C",[6],52.2%
same,"viability, T/C",[7],102%
same,"viability, T/C",[8],94%
same,"viability, T/C",[9],109%
same,"viability, T/C",[10],105%
same,"viability, T/C",[11],98.6%
same,"viability, T/C",[12],49.4%
same,"viability, T/C",[13],97.1%
same,"viability, T/C",[14],95.4%
same,"viability, T/C",[15],103%
same,"viability, T/C",[16],93.5%
same,"viability, T/C",[17],91.7%
same,"viability, T/C",[18],47.2%
same,"viability, T/C",[19],94.3%
same,"viability, T/C",[20],85.7%
same,"viability, T/C",[21],92%
same,"viability, T/C",[22],80.6%
same,"viability, T/C",[23],89.9%
same,"viability, T/C",[24],51%
same,"viability, T/C",[25],73.1%
same,"viability, T/C",[26],74.5%
same,"viability, T/C",[27],73%
same,"viability, T/C",[28],72.4%
same,"viability, T/C",[29],71.9%
same,"viability, T/C",[30],35.1%
same,"viability, T/C",[31],55.7%
same,"viability, T/C",[32],56.4%
same,"viability, T/C",[33],48.3%
same,"viability, T/C",[34],53.8%
same,"viability, T/C",[35],51.2%
same,"viability, T/C",[36],29.4%
CCCS(=O)(=O)Nc1ccc(F)c(C(=O)c2c[nH]c3ncc(-c4ccc(Cl)cc4)cc23)c1F + CC(Nc1ncnc2nc[nH]c12)c1cc2cccc(Cl)c2c(=O)n1-c1ccccc1,IC50,second compound 0.0316 µM,7.29 µM
same,IC50,second compound 0.1 µM,7.37 µM
same,IC50,second compound 0.316 µM,7.39 µM
same,IC50,second compound 1 µM,7.17 µM
same,IC50,second compound 3.16 µM,5.94 µM
same,IC50,second compound 10 µM,4.43 µM
same,"viability, T/C",[1],104%
same,"viability, T/C",[2],103%
same,"viability, T/C",[3],128%
same,"viability, T/C",[4],137%
same,"viability, T/C",[5],162%
same,"viability, T/C",[6],20.9%
same,"viability, T/C",[7],107%
same,"viability, T/C",[8],116%
same,"viability, T/C",[9],110%
same,"viability, T/C",[10],121%
same,"viability, T/C",[11],166%
same,"viability, T/C",[12],23.1%
same,"viability, T/C",[13],103%
same,"viability, T/C",[14],102%
same,"viability, T/C",[15],114%
same,"viability, T/C",[16],138%
same,"viability, T/C",[17],169%
same,"viability, T/C",[18],23.1%
same,"viability, T/C",[19],102%
same,"viability, T/C",[20],95.5%
same,"viability, T/C",[21],109%
same,"viability, T/C",[22],126%
same,"viability, T/C",[23],146%
same,"viability, T/C",[24],23%
same,"viability, T/C",[25],71.1%
same,"viability, T/C",[26],80%
same,"viability, T/C",[27],83.9%
same,"viability, T/C",[28],85.4%
same,"viability, T/C",[29],107%
same,"viability, T/C",[30],20.5%
same,"viability, T/C",[31],53.7%
same,"viability, T/C",[32],57.2%
same,"viability, T/C",[33],60.1%
same,"viability, T/C",[34],60.4%
same,"viability, T/C",[35],82.6%
same,"viability, T/C",[36],19.3%
